# Measurements from publication PMC9133015 (Nature Communications, 2022).
# Like-named read-outs stand apart in the source and are kept apart here.
# Experiment: Pharmacokinetic profiles
# Assay type: in vivo
# Conditions: rat, SD rats; for MRT inf: read-out: MRT0-∞
# [1] = SD, serum, iv, 1 mg/kg, IV 1 mg/kg, read-out: Con. Mean
# [2] = SD, serum, iv, 1 mg/kg, IV 1 mg/kg, read-out: Con. (individual rats NO.1-3)
# [3] = SD, serum, po, 10 mg/kg, PO 10 mg/kg, read-out: Con. (individual rats NO.1-3)
# [4] = SD, serum, po, 10 mg/kg, PO 10 mg/kg, read-out: Con. Mean
# [5] = Sprague-Dawley, serum, iv, 1 mg/kg, IV 1 mg/kg, read-out: Con. (individual rats NO.1-3)
# [6] = Sprague-Dawley, serum, iv, 1 mg/kg, IV 1 mg/kg, read-out: Con. Mean
smiles,measurement,setting,value
CCN1CCN(C(=O)c2ccc(Nc3ncc(F)c(-c4ccc5nc(N(C)C)sc5c4)n3)nc2)CC1 [YK-2-69],concentration at 4 h,[1],95.2 ng/mL
same,concentration at 6 h,[2],57.8 ng/mL
same,concentration at 6 h,[1],62 ng/mL
same,concentration at 8 h,[2],43 ng/mL
same,concentration at 8 h,[1],41.5 ng/mL
same,concentration at 12 h,[2],16.4 ng/mL
same,concentration at 12 h,[1],16.9 ng/mL
same,concentration at 0.083 h,[3],9.72 ng/mL
same,concentration at 0.083 h,[4],9.82 ng/mL
same,concentration at 0.25 h,[3],90.7 ng/mL
same,concentration at 0.25 h,[4],93.1 ng/mL
same,concentration at 0.5 h,[3],210 ng/mL
same,concentration at 0.5 h,[4],220 ng/mL
same,concentration at 1 h,[3],386 ng/mL
same,concentration at 1 h,[4],400 ng/mL
same,concentration at 2 h,[3],600 ng/mL
same,concentration at 2 h,[4],629 ng/mL
same,concentration at 4 h,[3],684 ng/mL
same,concentration at 4 h,[4],663 ng/mL
same,concentration at 6 h,[3],685 ng/mL
same,concentration at 6 h,[4],589 ng/mL
same,concentration at 8 h,[3],507 ng/mL
same,concentration at 8 h,[4],483 ng/mL
same,concentration at 12 h,[3],309 ng/mL
same,concentration at 12 h,[4],269 ng/mL
same,concentration at 24 h,[3],67.9 ng/mL
same,concentration at 24 h,[4],57.4 ng/mL
same,concentration at 0.033 h,"Sprague-Dawley, serum, iv, 1 mg/kg, IV 1 mg/kg, 0.033 h, read-out: Con. Mean",974 ng/mL
same,concentration at 0.083 h,[5],811 ng/mL
same,concentration at 0.083 h,[6],781 ng/mL
same,concentration at 0.25 h,[5],560 ng/mL
same,concentration at 0.25 h,[6],524 ng/mL
same,concentration at 0.5 h,[5],399 ng/mL
same,concentration at 0.5 h,[6],421 ng/mL
same,concentration at 1 h,[5],265 ng/mL
same,concentration at 1 h,[6],310 ng/mL
same,concentration at 12 h,"in vivo, IV 1 mg/kg, read-out: Con. (individual rats NO.1-3)",19.8 ng/mL
same,AUC(0-inf),"serum, IV 1 mg/kg",1500 ng·h/mL
same,Cmax,"serum, IV 1 mg/kg",974 ng/mL
same,Tmax,"serum, IV 1 mg/kg",0.0333 h
same,clearance,"serum, IV 1 mg/kg",11.2 mL/min/kg
same,half-life,"serum, IV 1 mg/kg",3 h
same,MRT inf,"serum, IV 1 mg/kg",3.5 h
same,AUC(0-inf),"serum, PO 10 mg/kg",8380 ng·h/mL
same,Cmax,"serum, PO 10 mg/kg",674 ng/mL
same,Tmax,"serum, PO 10 mg/kg",4 h
same,half-life,"serum, PO 10 mg/kg",5 h
same,bioavailability,"serum, PO 10 mg/kg vs IV 1 mg/kg, read-out: F (oral bioavailability)",56%
same,MRT inf,"serum, PO 10 mg/kg",8.9 h
